Test results as given in the supplement of paper PMC10307832.

Columns and labels:
Assay in all cases: relative viability (nuclei count vs DMSO), 5 days (fraction); higher = more cells survive
[1] = test system: NCI-H1563
How it was run: (§1)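 The day after seeding in 1536-well plates, lung cancer cell lines were treated by pin tool with a single drug, or with a fixed anchor-drug dose together with five library-drug doses (not always all listed) in √10 steps. After 5 days, a combined fix-and-stain solution (final 0.05% Triton X-100, 1% formaldehyde, 1 ug/ml Hoechst) was added. Nuclei counted on 4× images gave relative viability as treated counts over vehicle counts, reported as the median of duplicate plates.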

[2] = test system: SK-LU-1
How it was run: as §1

[3] = test system: NCI-H2170
How it was run: as §1

[4] = test system: NCI-H1915
How it was run: as §1

[5] = test system: NCI-H1793
How it was run: as §1

[6] = test system: NCI-H441
How it was run: as §1

[7] = test system: NCI-H23
How it was run: as §1

[8] = test system: NCI-H1944
How it was run: as §1

[9] = test system: HARA
How it was run: as §1

[10] = test system: NCI-H1755
How it was run: as §1

[11] = test system: NCI-H650
How it was run: as §1

[12] = test system: A-427
How it was run: as §1

[13] = test system: NCI-H322M
How it was run: as §1

[14] = test system: LCLC-97TM1
How it was run: as §1

[15] = test system: PC-3 [JPC-3]
How it was run: as §1

[16] = test system: LXF-289
How it was run: as §1

[17] = test system: NCI-H460
How it was run: as §1

[18] = test system: NCI-H2023
How it was run: as §1

[19] = test system: LU99A
How it was run: as §1

[20] = test system: BEN
How it was run: as §1

[21] = test system: NCI-H1395
How it was run: as §1

[22] = test system: NCI-H2126
How it was run: as §1

[23] = test system: NCI-H1666
How it was run: as §1

[24] = test system: LOU-NH91
How it was run: as §1

CCCCCCCCCCCC1=C(O)C(=O)C=C(O)C1=O [Embelin] + CS(=O)(=O)N1CCN(Cc2cc3nc(-c4cccc5[nH]ncc45)nc(N4CCOCC4)c3s2)CC1 [Pictilisib] (partner 1 µM)
relative viability ([1]; first compound 0.08 µM): 0.661 | relative viability ([1]; first compound 0.8 µM): 0.786 | relative viability ([1]; first compound 2.53 µM): 0.517 | relative viability ([1]; first compound 8 µM): 0.659 | relative viability ([2]; first compound 0.08 µM): 0.676 | relative viability ([2]; first compound 0.8 µM): 0.667 | relative viability ([2]; first compound 2.53 µM): 0.678 | relative viability ([2]; first compound 8 µM): 0.541 | relative viability ([3]; first compound 0.08 µM): 0.307 | relative viability ([3]; first compound 0.8 µM): 0.325 | relative viability ([3]; first compound 2.53 µM): 0.366 | relative viability ([3]; first compound 8 µM): 0.286 | relative viability ([4]; first compound 0.08 µM): 1.06 | relative viability ([4]; first compound 0.8 µM): 1.08 | relative viability ([4]; first compound 2.53 µM): 0.952 | relative viability ([4]; first compound 8 µM): 0.919 | relative viability ([5]; first compound 0.08 µM): 0.344 | relative viability ([5]; first compound 0.8 µM): 0.366 | relative viability ([5]; first compound 2.53 µM): 0.361 | relative viability ([5]; first compound 8 µM): 0.218 | relative viability ([6]; first compound 0.08 µM): 0.437 | relative viability ([6]; first compound 0.8 µM): 0.549 | relative viability ([6]; first compound 2.53 µM): 0.476 | relative viability ([6]; first compound 8 µM): 0.505 | relative viability ([7]; first compound 0.08 µM): 0.51 | relative viability ([7]; first compound 0.8 µM): 0.573 | relative viability ([7]; first compound 2.53 µM): 0.475 | relative viability ([7]; first compound 8 µM): 0.479 | relative viability ([8]; first compound 0.08 µM): 0.367 | relative viability ([8]; first compound 0.8 µM): 0.383 | relative viability ([8]; first compound 2.53 µM): 0.36 | relative viability ([8]; first compound 8 µM): 0.306 | relative viability ([9]; first compound 0.08 µM): 0.604 | relative viability ([9]; first compound 0.8 µM): 0.586 | relative viability ([9]; first compound 2.53 µM): 0.489 | relative viability ([9]; first compound 8 µM): 0.653 | relative viability ([10]; first compound 0.08 µM): 0.502 | relative viability ([10]; first compound 0.8 µM): 0.499 | relative viability ([10]; first compound 2.53 µM): 0.367 | relative viability ([10]; first compound 8 µM): 0.333 | relative viability ([11]; first compound 0.08 µM): 0.939 | relative viability ([11]; first compound 0.8 µM): 1.1 | relative viability ([11]; first compound 2.53 µM): 1.06 | relative viability ([11]; first compound 8 µM): 0.896 | relative viability ([12]; first compound 0.08 µM): 0.857 | relative viability ([12]; first compound 0.8 µM): 0.862 | relative viability ([12]; first compound 2.53 µM): 0.654 | relative viability ([12]; first compound 8 µM): 0.656 | relative viability ([13]; first compound 0.08 µM): 0.518 | relative viability ([13]; first compound 0.8 µM): 0.612 | relative viability ([13]; first compound 2.53 µM): 0.576 | relative viability ([13]; first compound 8 µM): 0.478 | relative viability ([14]; first compound 0.8 µM): 0.21 | relative viability ([14]; first compound 2.53 µM): 0.184 | relative viability ([14]; first compound 8 µM): 0.122 | relative viability ([15]; first compound 0.08 µM): 0.733 | relative viability ([15]; first compound 0.8 µM): 0.759 | relative viability ([15]; first compound 2.53 µM): 0.787 | relative viability ([15]; first compound 8 µM): 0.669 | relative viability ([16]; first compound 0.08 µM): 0.855 | relative viability ([16]; first compound 0.8 µM): 0.794 | relative viability ([16]; first compound 2.53 µM): 0.75 | relative viability ([16]; first compound 8 µM): 0.819 | relative viability ([17]; first compound 0.08 µM): 0.377 | relative viability ([17]; first compound 0.8 µM): 0.409 | relative viability ([17]; first compound 2.53 µM): 0.476 | relative viability ([17]; first compound 8 µM): 0.48 | relative viability ([18]; first compound 0.08 µM): 0.269 | relative viability ([18]; first compound 0.8 µM): 0.242 | relative viability ([18]; first compound 2.53 µM): 0.211 | relative viability ([18]; first compound 8 µM): 0.243 | relative viability ([19]; first compound 0.08 µM): 0.393 | relative viability ([19]; first compound 0.8 µM): 0.334 | relative viability ([19]; first compound 2.53 µM): 0.357 | relative viability ([19]; first compound 8 µM): 0.281 | relative viability ([20]; first compound 0.08 µM): 0.583 | relative viability ([20]; first compound 0.8 µM): 0.704 | relative viability ([20]; first compound 2.53 µM): 0.743 | relative viability ([20]; first compound 8 µM): 0.556 | relative viability ([21]; first compound 0.08 µM): 0.608 | relative viability ([21]; first compound 0.8 µM): 0.677 | relative viability ([21]; first compound 2.53 µM): 0.69 | relative viability ([21]; first compound 8 µM): 0.502 | relative viability ([22]; first compound 0.08 µM): 0.482 | relative viability ([22]; first compound 0.8 µM): 0.424 | relative viability ([22]; first compound 2.53 µM): 0.523 | relative viability ([22]; first compound 8 µM): 0.467 | relative viability ([23]; first compound 0.08 µM): 0.482 | relative viability ([23]; first compound 0.8 µM): 0.549 | relative viability ([23]; first compound 2.53 µM): 0.365 | relative viability ([23]; first compound 8 µM): 0.403 | relative viability ([24]; first compound 0.08 µM): 0.543 | relative viability ([24]; first compound 0.8 µM): 0.597 | relative viability ([24]; first compound 2.53 µM): 0.552 | relative viability ([24]; first compound 8 µM): 0.459
